Reference: ChEMBL document CHEMBL5370660, “Design of a Supersoft Topical JAK Inhibitor, Which Is Effective in Human Skin but Rapidly Deactivated in Blood” (J Med Chem, 2023)
≈ marks a conversion by molar mass, not a printed value.

biological target: Tyrosine-protein kinase JAK1 (Homo sapiens, UniProt P23458); assay: Inhibition of GST-fused JAK1 (866 to 1154 residues)(unknown origin) using FITC-Ahr-KKSRGDYMTMQIG-NH2 peptide as substrate incubated for 30 mins in presence of ATP by caliper microfluidic mobility shift assay; settings: not given
Sequence (P23458 whole entry, the tested form may be a part): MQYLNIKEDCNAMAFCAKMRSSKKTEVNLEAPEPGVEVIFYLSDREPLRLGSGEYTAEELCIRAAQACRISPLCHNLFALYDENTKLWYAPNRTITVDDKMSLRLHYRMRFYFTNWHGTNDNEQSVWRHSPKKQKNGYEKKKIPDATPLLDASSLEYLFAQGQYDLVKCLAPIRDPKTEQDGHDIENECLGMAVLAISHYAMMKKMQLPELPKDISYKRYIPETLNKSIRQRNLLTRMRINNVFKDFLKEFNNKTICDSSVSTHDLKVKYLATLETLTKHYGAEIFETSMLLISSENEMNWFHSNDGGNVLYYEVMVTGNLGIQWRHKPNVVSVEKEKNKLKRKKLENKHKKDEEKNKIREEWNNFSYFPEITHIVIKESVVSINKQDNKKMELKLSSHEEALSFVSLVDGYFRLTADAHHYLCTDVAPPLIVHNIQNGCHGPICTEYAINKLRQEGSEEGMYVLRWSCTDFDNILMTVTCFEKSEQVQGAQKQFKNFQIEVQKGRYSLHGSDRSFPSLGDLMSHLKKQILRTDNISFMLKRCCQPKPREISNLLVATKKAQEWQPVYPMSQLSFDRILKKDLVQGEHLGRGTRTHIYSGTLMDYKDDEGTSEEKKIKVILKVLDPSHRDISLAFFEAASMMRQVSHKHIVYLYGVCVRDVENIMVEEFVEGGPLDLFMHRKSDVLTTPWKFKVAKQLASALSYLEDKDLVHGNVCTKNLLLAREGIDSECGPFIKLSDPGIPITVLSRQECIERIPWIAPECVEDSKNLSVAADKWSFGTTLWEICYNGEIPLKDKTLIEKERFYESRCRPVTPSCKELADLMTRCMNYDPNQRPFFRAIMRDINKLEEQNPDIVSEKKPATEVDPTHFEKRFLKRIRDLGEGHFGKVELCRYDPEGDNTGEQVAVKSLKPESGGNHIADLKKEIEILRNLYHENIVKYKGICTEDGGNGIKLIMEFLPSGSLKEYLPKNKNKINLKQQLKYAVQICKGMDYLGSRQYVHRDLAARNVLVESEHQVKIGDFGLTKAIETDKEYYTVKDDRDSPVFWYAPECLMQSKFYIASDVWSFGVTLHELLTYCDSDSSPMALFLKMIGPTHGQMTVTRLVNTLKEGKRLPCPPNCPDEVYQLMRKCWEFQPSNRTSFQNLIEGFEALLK

Structure (SMILES) | IC50
CCOC(=O)c1ccc(Nc2cc(Nc3ccccc3Cl)c(C(N)=O)cn2)nc1 | 120 nM
CCOC(=O)COc1ccc(Nc2cc(Nc3ccccc3Cl)c(C(N)=O)cn2)nc1 | 69 nM
COc1ccccc1Nc1cc(Nc2ccc(CC(=O)O[C@H]3CCOC3)cn2)ncc1C(N)=O | 5 nM
CCOC(=O)CCc1ccc(Nc2cc(Nc3ccccc3Cl)c(C(N)=O)cn2)nc1 | 27 nM
NC(=O)c1cnc(Nc2ccc(CC(=O)O)cn2)cc1Nc1ccccc1Cl | 9 nM

biological target: Tyrosine-protein kinase JAK2 (Homo sapiens, UniProt O60674); assay: Inhibition of GST-fused JAK2 (808 to 1132 residues)(unknown origin) using Carboxyfluorescein-Ahx-GGEEEEYFELVKKKK peptide as substrate incubated for 30 mins in presence of ATP by caliper microfluidic mobility shift assay; settings: not given
Sequence (O60674 whole entry, the tested form may be a part): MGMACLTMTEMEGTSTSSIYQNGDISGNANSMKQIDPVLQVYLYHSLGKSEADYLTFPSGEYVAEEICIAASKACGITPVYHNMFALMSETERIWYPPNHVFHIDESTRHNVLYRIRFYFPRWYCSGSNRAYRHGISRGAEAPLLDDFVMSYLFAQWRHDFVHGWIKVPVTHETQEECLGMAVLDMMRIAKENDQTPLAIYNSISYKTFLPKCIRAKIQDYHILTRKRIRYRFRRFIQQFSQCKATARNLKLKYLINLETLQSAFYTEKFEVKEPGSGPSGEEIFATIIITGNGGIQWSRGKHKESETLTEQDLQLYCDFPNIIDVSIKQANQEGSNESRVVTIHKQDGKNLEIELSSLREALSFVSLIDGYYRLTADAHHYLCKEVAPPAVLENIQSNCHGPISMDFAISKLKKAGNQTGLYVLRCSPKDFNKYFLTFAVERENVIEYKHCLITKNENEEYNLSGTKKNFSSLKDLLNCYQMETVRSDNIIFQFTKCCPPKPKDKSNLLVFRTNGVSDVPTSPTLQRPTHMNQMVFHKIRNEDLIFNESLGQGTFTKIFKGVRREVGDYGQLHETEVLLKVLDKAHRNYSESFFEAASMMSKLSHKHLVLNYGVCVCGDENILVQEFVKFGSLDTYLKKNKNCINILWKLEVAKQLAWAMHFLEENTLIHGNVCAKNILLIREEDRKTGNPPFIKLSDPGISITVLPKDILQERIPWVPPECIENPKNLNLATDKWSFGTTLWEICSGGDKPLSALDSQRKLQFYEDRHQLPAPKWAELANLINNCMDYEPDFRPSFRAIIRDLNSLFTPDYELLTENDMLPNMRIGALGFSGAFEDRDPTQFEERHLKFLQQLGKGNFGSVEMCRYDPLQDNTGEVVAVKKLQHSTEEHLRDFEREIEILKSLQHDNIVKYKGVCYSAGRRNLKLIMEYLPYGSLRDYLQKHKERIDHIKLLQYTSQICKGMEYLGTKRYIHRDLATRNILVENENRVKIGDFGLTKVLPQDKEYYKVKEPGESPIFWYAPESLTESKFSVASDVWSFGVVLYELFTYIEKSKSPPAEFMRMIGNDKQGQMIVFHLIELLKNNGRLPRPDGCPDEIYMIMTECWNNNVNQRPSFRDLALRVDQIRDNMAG

Structure (SMILES) | IC50
CCOC(=O)c1ccc(Nc2cc(Nc3ccccc3Cl)c(C(N)=O)cn2)nc1 | 110 nM
CCOC(=O)COc1ccc(Nc2cc(Nc3ccccc3Cl)c(C(N)=O)cn2)nc1 | 76 nM
COc1ccccc1Nc1cc(Nc2ccc(CC(=O)O[C@H]3CCOC3)cn2)ncc1C(N)=O | 5 nM
CCOC(=O)CCc1ccc(Nc2cc(Nc3ccccc3Cl)c(C(N)=O)cn2)nc1 | 25 nM
NC(=O)c1cnc(Nc2ccc(CC(=O)O)cn2)cc1Nc1ccccc1Cl | 19 nM

biological target: T1, Tyrosine-protein kinase JAK3 (Homo sapiens, UniProt P52333); assay: Inhibition of GST-fused JAK3 (811 to 1124 residues)(unknown origin) using Carboxyfluorescein-Ahx-GGEEEEYFELVKKKK peptide as substrate incubated for 30 mins in presence of ATP by caliper microfluidic mobility shift assay; settings: not given
T1 sequence (P52333 whole entry): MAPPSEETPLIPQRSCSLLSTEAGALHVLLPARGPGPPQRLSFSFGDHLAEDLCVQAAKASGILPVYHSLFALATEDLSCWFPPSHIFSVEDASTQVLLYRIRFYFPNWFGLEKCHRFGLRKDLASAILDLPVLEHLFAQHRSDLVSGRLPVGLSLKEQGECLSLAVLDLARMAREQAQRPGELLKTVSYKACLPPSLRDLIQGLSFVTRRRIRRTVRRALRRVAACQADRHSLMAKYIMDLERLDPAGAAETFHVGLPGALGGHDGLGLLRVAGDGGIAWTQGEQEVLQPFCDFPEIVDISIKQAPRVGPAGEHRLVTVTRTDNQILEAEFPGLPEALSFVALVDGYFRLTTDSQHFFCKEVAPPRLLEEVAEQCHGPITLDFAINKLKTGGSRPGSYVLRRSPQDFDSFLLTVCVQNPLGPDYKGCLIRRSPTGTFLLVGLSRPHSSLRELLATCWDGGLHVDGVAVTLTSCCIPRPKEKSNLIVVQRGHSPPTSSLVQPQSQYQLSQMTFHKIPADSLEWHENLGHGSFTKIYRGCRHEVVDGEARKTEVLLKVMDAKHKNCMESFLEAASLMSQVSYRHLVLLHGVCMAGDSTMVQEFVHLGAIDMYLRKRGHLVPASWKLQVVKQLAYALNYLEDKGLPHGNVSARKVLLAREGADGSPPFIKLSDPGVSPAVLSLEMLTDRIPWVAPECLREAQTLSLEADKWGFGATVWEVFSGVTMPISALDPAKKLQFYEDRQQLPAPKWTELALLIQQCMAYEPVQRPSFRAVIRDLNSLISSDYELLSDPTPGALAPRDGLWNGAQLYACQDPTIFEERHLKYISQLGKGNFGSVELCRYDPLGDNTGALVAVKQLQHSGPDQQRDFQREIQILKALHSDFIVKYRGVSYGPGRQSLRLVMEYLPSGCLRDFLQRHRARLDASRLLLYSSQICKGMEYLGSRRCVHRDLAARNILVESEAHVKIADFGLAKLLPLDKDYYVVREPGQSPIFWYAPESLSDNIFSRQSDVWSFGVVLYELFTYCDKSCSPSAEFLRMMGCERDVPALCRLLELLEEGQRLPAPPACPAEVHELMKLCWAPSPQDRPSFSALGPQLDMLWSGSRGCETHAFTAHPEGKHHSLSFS

Structure (SMILES) | IC50
CCOC(=O)c1ccc(Nc2cc(Nc3ccccc3Cl)c(C(N)=O)cn2)nc1 | 170 nM
CCOC(=O)COc1ccc(Nc2cc(Nc3ccccc3Cl)c(C(N)=O)cn2)nc1 | 69 nM
COc1ccccc1Nc1cc(Nc2ccc(CC(=O)O[C@H]3CCOC3)cn2)ncc1C(N)=O | 5 nM
CCOC(=O)CCc1ccc(Nc2cc(Nc3ccccc3Cl)c(C(N)=O)cn2)nc1 | 25 nM
NC(=O)c1cnc(Nc2ccc(CC(=O)O)cn2)cc1Nc1ccccc1Cl | 10 nM

biological target: Non-receptor tyrosine-protein kinase TYK2 (Homo sapiens, UniProt P29597); assay: Inhibition of GST-fused TYK2 (888 to 1187 residues)(unknown origin) using FITC-Ahr-KKSRGDYMTMQIG-NH2 peptide as substrate incubated for 30 mins in presence of ATP by caliper microfluidic mobility shift assay; settings: not given
Sequence (P29597 whole entry, the tested form may be a part): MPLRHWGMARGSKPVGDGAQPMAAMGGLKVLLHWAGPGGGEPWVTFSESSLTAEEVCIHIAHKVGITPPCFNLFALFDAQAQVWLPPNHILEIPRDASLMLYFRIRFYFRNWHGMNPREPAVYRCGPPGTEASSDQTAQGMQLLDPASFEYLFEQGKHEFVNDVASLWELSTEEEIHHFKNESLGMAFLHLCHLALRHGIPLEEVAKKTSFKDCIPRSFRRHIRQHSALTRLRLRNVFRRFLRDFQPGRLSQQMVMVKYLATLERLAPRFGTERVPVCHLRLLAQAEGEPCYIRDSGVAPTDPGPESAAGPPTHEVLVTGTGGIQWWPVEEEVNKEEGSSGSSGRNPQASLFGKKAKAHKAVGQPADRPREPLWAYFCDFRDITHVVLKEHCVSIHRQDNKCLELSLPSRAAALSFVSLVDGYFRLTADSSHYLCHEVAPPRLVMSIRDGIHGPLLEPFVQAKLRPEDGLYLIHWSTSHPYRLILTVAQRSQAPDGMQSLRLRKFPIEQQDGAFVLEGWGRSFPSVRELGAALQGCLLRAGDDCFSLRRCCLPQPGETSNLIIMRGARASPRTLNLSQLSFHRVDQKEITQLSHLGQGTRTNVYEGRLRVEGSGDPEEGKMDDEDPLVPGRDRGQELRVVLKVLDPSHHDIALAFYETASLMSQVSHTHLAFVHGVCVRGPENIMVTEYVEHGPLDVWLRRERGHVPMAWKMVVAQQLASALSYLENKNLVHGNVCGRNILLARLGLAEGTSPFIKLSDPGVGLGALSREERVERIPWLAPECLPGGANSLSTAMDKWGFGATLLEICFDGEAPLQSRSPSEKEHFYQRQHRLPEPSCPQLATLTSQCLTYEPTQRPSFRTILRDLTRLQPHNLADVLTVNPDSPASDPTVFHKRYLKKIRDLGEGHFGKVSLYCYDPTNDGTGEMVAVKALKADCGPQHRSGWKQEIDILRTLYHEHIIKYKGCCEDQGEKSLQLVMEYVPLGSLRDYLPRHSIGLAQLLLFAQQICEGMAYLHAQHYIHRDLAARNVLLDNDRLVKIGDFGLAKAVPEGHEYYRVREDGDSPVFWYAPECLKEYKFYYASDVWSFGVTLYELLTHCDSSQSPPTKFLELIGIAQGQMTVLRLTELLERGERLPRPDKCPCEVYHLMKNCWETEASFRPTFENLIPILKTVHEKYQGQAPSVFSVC

Structure (SMILES) | IC50
CCOC(=O)COc1ccc(Nc2cc(Nc3ccccc3Cl)c(C(N)=O)cn2)nc1 | 54 nM
COc1ccccc1Nc1cc(Nc2ccc(CC(=O)O[C@H]3CCOC3)cn2)ncc1C(N)=O | 2 nM
CCOC(=O)CCc1ccc(Nc2cc(Nc3ccccc3Cl)c(C(N)=O)cn2)nc1 | 37 nM
NC(=O)c1cnc(Nc2ccc(CC(=O)O)cn2)cc1Nc1ccccc1Cl | 10 nM

biological target: T2, JAK3/JAK1 (Homo sapiens, UniProt P23458+P52333); assay: Inhibition of JAK1/3-mediated STAT5 phosphorylation in human M07E cells preincubated for 30 mins followed by IL-15 stimulation measured after 15 mins by flow cytometry; format: cell-based; settings: not given
T2 sequence (P23458 whole entry, one chain of several): as the sequence (P23458 whole entry, the tested form may be a part) above

Structure (SMILES) | IC50
CCOC(=O)c1ccc(Nc2cc(Nc3ccccc3Cl)c(C(N)=O)cn2)nc1 | 189 nM
CCOC(=O)COc1ccc(Nc2cc(Nc3ccccc3Cl)c(C(N)=O)cn2)nc1 | 141 nM
COc1ccccc1Nc1cc(Nc2ccc(CC(=O)O[C@H]3CCOC3)cn2)ncc1C(N)=O | 89 nM
CCOC(=O)CCc1ccc(Nc2cc(Nc3ccccc3Cl)c(C(N)=O)cn2)nc1 | 171 nM
NC(=O)c1cnc(Nc2ccc(CC(=O)O)cn2)cc1Nc1ccccc1Cl | 2580 nM

biological target: JAK2/JAK1 (Homo sapiens, UniProt O60674+P23458); assay: Inhibition of JAK1/2-mediated STAT1 phosphorylation in human M07E cells preincubated for 30 mins followed by IFN-alpha stimulation measured after 15 mins by flow cytometry; format: cell-based; settings: not given
Sequence (P23458 whole entry): as the sequence (P23458 whole entry, the tested form may be a part) above
Sequence (O60674 whole entry): as the sequence (O60674 whole entry, the tested form may be a part) above

Structure (SMILES) | IC50
NC(=O)c1cnc(Nc2cccc(O)n2)cc1Nc1ccccc1Cl | > 10000 nM
CCOC(=O)c1ccc(Nc2cc(Nc3ccccc3Cl)c(C(N)=O)cn2)nc1 | 288 nM
CCOC(=O)COc1ccc(Nc2cc(Nc3ccccc3Cl)c(C(N)=O)cn2)nc1 | 185 nM
COc1ccccc1Nc1cc(Nc2ccc(CC(=O)O[C@H]3CCOC3)cn2)ncc1C(N)=O | 44 nM
CCOC(=O)CCc1ccc(Nc2cc(Nc3ccccc3Cl)c(C(N)=O)cn2)nc1 | 185 nM
NC(=O)c1cnc(Nc2ccc(CC(=O)O)cn2)cc1Nc1ccccc1Cl | 3860 nM

biological target: T2, JAK3/JAK1; assay: Inhibition of JAK1/3-mediated STAT5 phosphorylation in human whole blood incubated for 30 mins followed by IL-2 addition measured after 15 mins by flow cytometry; format: tissue-based; settings: not given

Structure (SMILES) | IC50
CCOC(=O)c1ccc(Nc2cc(Nc3ccccc3Cl)c(C(N)=O)cn2)nc1 | 10300 nM
CCOC(=O)COc1ccc(Nc2cc(Nc3ccccc3Cl)c(C(N)=O)cn2)nc1 | 7530 nM
COc1ccccc1Nc1cc(Nc2ccc(CC(=O)O[C@H]3CCOC3)cn2)ncc1C(N)=O | 16000 nM
CCOC(=O)CCc1ccc(Nc2cc(Nc3ccccc3Cl)c(C(N)=O)cn2)nc1 | 2500 nM
NC(=O)c1cnc(Nc2ccc(CC(=O)O)cn2)cc1Nc1ccccc1Cl | > 50000 nM

test system: not listed separately; assay: Stability in human whole blood assessed as half life at 1 uM incubated upto 8 hrs by LC-MS/MS analysis; format: ADME, tissue-based; settings: not given

Structure (SMILES) | half-life at 1 µM
NC(=O)c1cnc(Nc2cccc(O)n2)cc1Nc1ccccc1Cl | > 60 min
COc1ccccc1Nc1cc(Nc2ccc(CC(=O)O[C@H]3CCOC3)cn2)ncc1C(N)=O | 5 min
NC(=O)c1cnc(Nc2ccc(CC(=O)O)cn2)cc1Nc1ccccc1Cl | > 240 min

test system: not listed separately; assay: Metabolic stability in human skin S9 fraction measured upto 120 mins by LC-MS analysis; format: ADME, subcellular; settings: not given

Structure (SMILES) | half-life
NC(=O)c1cnc(Nc2cccc(O)n2)cc1Nc1ccccc1Cl | > 200 min
CCOC(=O)COc1ccc(Nc2cc(Nc3ccccc3Cl)c(C(N)=O)cn2)nc1 | 4 min
COc1ccccc1Nc1cc(Nc2ccc(CC(=O)O[C@H]3CCOC3)cn2)ncc1C(N)=O | 39 min
CCOC(=O)CCc1ccc(Nc2cc(Nc3ccccc3Cl)c(C(N)=O)cn2)nc1 | 8 min
NC(=O)c1cnc(Nc2ccc(CC(=O)O)cn2)cc1Nc1ccccc1Cl | < 240 min

test system: not listed separately; assay: Permeability of compound; format: ADME; settings: not told; read-out: permeability

Structure (SMILES) | Papp
COc1ccccc1Nc1cc(Nc2ccc(CC(=O)O[C@H]3CCOC3)cn2)ncc1C(N)=O | 20 ×10⁻⁶ cm/s
NC(=O)c1cnc(Nc2ccc(CC(=O)O)cn2)cc1Nc1ccccc1Cl | 0.9 ×10⁻⁶ cm/s

test system: not listed separately; assay: Lipophilicity, LogD of compound; format: physicochemical; settings: octanol/water

Structure (SMILES) | logD
COc1ccccc1Nc1cc(Nc2ccc(CC(=O)O[C@H]3CCOC3)cn2)ncc1C(N)=O | 3
NC(=O)c1cnc(Nc2ccc(CC(=O)O)cn2)cc1Nc1ccccc1Cl | 0.4

test system: not listed separately; assay: Thermodynamic solubility of the compound at pH 6.8 using crystalline form of sample; format: physicochemical; settings: read-out: Therm_solubility

Structure (SMILES) | solubility thermodynamic
COc1ccccc1Nc1cc(Nc2ccc(CC(=O)O[C@H]3CCOC3)cn2)ncc1C(N)=O | 31 µg/mL (≈ 66.9 µM)

test system: not listed separately; assay: Saturation solubility of compound in PEG400/transcutol/benzyl alcohol/water mixture using crystalline form of sample; format: physicochemical; settings: not given

Structure (SMILES) | solubility thermodynamic
COc1ccccc1Nc1cc(Nc2ccc(CC(=O)O[C@H]3CCOC3)cn2)ncc1C(N)=O | > 18000 µg/mL

test system: not listed separately; assay: Stability of compound under light stress assessed as compound decomposition under sunlight with intensity of 4000 KJ/m2, irradiation of 250 W/m2, wavelength of >290 nm, temperature of 37 degreeC for 4 hrs using crystalline form of sample; format: ADME; settings: read-out: Drug degradation

Structure (SMILES) | degraded at 4 h
COc1ccccc1Nc1cc(Nc2ccc(CC(=O)O[C@H]3CCOC3)cn2)ncc1C(N)=O | 3.3%

test system: not listed separately; assay: Stability of compound under temperature stress assessed as compound degradation at 50 degreeC measured after 7 days using crystalline form of sample; format: physicochemical; settings: time 7 day; read-out: Drug degradation

Structure (SMILES) | degraded at 168 h
COc1ccccc1Nc1cc(Nc2ccc(CC(=O)O[C@H]3CCOC3)cn2)ncc1C(N)=O | 2.4%

test system: not listed separately; assay: Stability of compound in fresh human skin explant using Franz diffusion cell model assessed as compound concentration in dermis at 3 % administered topically preincubated overnight followed by fresh media replacement in receiver fluid without compound and subsequently stimulated with IL-4/IL-13 measured after 40 hrs by LC-MS/MS analysis; format: ADME, tissue-based, Skin of body; settings: topical or ocular, read-out: Ct

Structure (SMILES) | concentration at 40 h, 3 %
COc1ccccc1Nc1cc(Nc2ccc(CC(=O)O[C@H]3CCOC3)cn2)ncc1C(N)=O | 54 µM

test system: not listed separately; assay: Drug penetration in fresh human skin explant using Franz diffusion cell model assessed as concentration of 2-(6-((5-carbamoyl-4-((2-methoxyphenyl)amino)pyridin-2-yl)amino)pyridin-3-yl)acetic acid metabolite in receiver fluid at 3 % administered topically preincubated overnight followed by fresh media replacement in receiver fluid without compound and subsequently stimulated with IL-4/IL-13 measured after 24 hrs by LC-MS/MS analysis; format: ADME, tissue-based, Skin of body; settings: topical_or_ocular

Structure (SMILES) | Drug uptake
COc1ccccc1Nc1cc(Nc2ccc(CC(=O)O[C@H]3CCOC3)cn2)ncc1C(N)=O | 0.124 µM
